Nine molecules from patent US8957091B2, “Use of quinolinone derivatives as a research tool” (Centre National de la Recherche Scientifique, priority 2010, dated 2015) can be followed below.

Holding throughout (format): cell-based
The test system of one experiment is C3H10T1/2 cells. Description: Activation of osteogenic differentiation of C3H10T1/2 cells (alkaline phosphatase activity). The note with it: for stimulation of osteogenesis: induction of alkaline phosphatase after 6 days. On the procedure: The pluripotent fibroblast cell line C3H10T1/2 (ATCC) was cultured under the conditions recommended by the ATCC. The stimulation of the differentiation of these cells was carried out using increasing concentrations of compounds according to the methods described by Chen et al. and Frank-Kamenetsky et al. (Chen et al. 2002; Frank-Kamenetsky et al. 2002). The activation by the compounds of general formula (I) causes differentiation of the cell line and enables the latter to express alkaline phosphatase. It was thus possible to measure the activity of the compounds via the measurement of alkaline phosphatase activity. By way of comparison, the activity of the SAG compound (Chen et al. 2002), an Smo activator, was tested under the same conditions as those used to test the compounds of general formula (I).
(§1) The C3H10T1/2 cells were seeded onto 96-well plates at a density of 5×10^3 cells per well, 24 hours before the addition of the test compounds at a concentration ranging from 10 nM to 10 μM in DMEM culture medium supplemented with 10% of fetal calf serum. The tests were carried out in quadruplicate. The plates were then incubated for 5-6 days at a temperature of 37° C. under an atmosphere of 5% CO2. The cells were then washed in cold phosphate buffer (phosphate buffered saline: PBS) and then lysed by sonication at 4° C. in 50 μl of a solution containing 0.9% of NaCl and 0.2% of Triton X-100.
(§2) The alkaline phosphatase in the resulting lysates was then measured according to the method described by Pepinsky et al. (Pepinsky et al. 1998). After the addition of […] of reaction buffer (200 mM Tris-HCL; pH 10.5; 0.4 M of 2-amino-2-methylpropanol and 8 mM of MgCl2) and of 50 μl of substrate (4 mM of disodium p-nitrophenyl phosphate), the lysates were incubated at 37° C. for 30-60 min and then the optical density was read at a wavelength of 415 nm.

The target in a further experiment is T1, Smo1 sites (Mus musculus, UniProt P56726).
T1 construct: host or cells: C3H10T1/2
T1 sequence (P56726 33-793): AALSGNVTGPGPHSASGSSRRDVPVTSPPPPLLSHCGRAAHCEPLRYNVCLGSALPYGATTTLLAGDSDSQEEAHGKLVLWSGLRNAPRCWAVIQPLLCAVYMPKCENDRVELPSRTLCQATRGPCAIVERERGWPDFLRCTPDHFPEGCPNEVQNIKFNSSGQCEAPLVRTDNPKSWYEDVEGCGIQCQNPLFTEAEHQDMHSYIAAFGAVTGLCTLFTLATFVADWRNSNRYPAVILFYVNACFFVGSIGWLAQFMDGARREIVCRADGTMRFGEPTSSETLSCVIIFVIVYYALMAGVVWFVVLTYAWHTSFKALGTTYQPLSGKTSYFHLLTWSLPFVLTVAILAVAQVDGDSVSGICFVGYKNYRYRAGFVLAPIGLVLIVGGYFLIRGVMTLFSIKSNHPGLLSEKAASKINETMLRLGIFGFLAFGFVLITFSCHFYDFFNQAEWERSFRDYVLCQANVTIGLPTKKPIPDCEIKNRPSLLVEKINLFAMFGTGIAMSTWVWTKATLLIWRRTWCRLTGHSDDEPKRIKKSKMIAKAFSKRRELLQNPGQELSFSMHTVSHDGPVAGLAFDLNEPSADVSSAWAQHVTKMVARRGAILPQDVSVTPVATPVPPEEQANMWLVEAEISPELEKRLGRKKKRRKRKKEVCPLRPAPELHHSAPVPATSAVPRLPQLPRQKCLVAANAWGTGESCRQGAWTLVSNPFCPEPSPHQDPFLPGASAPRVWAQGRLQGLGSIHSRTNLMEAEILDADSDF
Description: Inhibition of C3H10T1/2 differentiation (alkaline phosphatase activity) induced by SAG. The settings on record: for IC50: alkaline phosphatase activity induced by SAG (0.1 μM). The protocol:
as §1, §2

The target in the next experiment is T2, Smo2 sites (Mus musculus, UniProt P56726).
T2 construct: host or cells: C3H10T1/2
T2 sequence (P56726 33-793): as above
Description: Inhibition of C3H10T1/2 differentiation (alkaline phosphatase activity) induced by compound 1 or compound 6. The settings on record: for selectivity between Smo1 and Smo2 sites (in words): Smo1 stimulated by SAG, Smo2 stimulated by compound 1; for C3H10T1/2 cell differentiation IC50 Smo1/IC50 Smo2: ratio of mean IC50 values, Smo1 stimulated by SAG 0.1 μM, Smo2 by compound 1 1 μM. The protocol: as §1, §2

Experiment [1] deals with C3H10T1/2 mesenchymal stem cells. Description: Modulation by IWR1 of differentiation stimulated by compound 1 or SAG. The protocol: For the experiments in the presence of forskolin, compound 1 (1 μM) and SAG (0.3 μM) were used to stimulate differentiation in the presence of increasing concentrations (1, 3 and 10 μM) of forskolin (Sigma). The IWR1 compound (Sigma), for its part, was used at 10 μM on an activation by compound 1 at 1 μM or SAG at 0.1 μM. The alkaline phosphatase activity was measured as previously.

[2] abbreviates: antagonist at 10 μM, induced by compound 1 (1 μM), C3H10T1/2 cells.
Setting [3] is: C3H 10T1/2, antagonist at 10 μM, induced by SAG (0.1 μM), C3H10T1/2 cells, read-out: Smo1 Inhibition 10 μM.
[4] abbreviates: C3H 10T1/2, antagonist at 10 μM, induced by compound 1 (1 μM), C3H10T1/2 cells, read-out: Smo2 Inhibition 10 μM.
The mark [5] stands for this setting: alkaline phosphatase activity induced by compound 1 (1 μM), mean ± SEM of 2 to 6 experiments, read-out: IC50 μM, C3H10T1/2, Compound 1.
Where [6] appears, read: alkaline phosphatase activity induced by compound 6 (3 μM), mean ± SEM of 2 to 6 experiments, read-out: IC50 μM, C3H10T1/2, Compound 6.
[7] abbreviates: alkaline phosphatase activity induced by compound 1 (1 μM), C3H10T1/2 cells, read-out: Smo2 IC50.

As a reminder, the inhibition is the percentage by which the read-out fell short of the control.

“Also recorded” adds a separate entry of the source. Where two headings read alike, the source gives them in different places.

As for `CCCCCCn1c(=O)c(C(=O)Nc2ccc(C(=O)OC(C)(C)C)cc2)c(O)c2ccccc21` [compound 6, tert-butyl 4-(1-hexyl-4-hydroxy-2-oxo-1,2-dihydroquinoline-3-carboxamido)benzoate], in the experiment on C3H10T1/2 cells, the stimulation of osteogenesis entry was “have the capacity to stimulate osteogenesis”.

Turning to `CC1=C2C[C@H]3[C@@H](CC=C4C[C@@H](O)CC[C@@]43C)[C@@H]2CC[C@]12O[C@@H]1C[C@H](C)CN[C@H]1[C@H]2C` [Cyclopamine, cyclopamine], the inhibition at 10 µM was 98% on Smo1 sites (C3H 10T1/2, read-out: Smo1 Inhibition 10 μM) and 48% at Smo2 sites (C3H 10T1/2, read-out: Smo2 Inhibition 10 μM). Further, the “Smo1 Inhibition 10 μM” value on Smo1 sites (antagonist at 10 μM, induced by SAG (0.1 μM), C3H10T1/2 cells) is listed as “complete inhibition”. In addition, the “Smo2 Inhibition 10 μM” value at Smo2 sites (setting [2]) was “weaker inhibition”.

As to `COc1cc(C(=O)NC(=S)Nc2cccc(NC(=O)c3ccc(-c4ccc(F)cc4)cc3)c2)cc(OC)c1OC` [MRT-79], on Smo2 sites, the “selectivity between Smo1 and Smo2 sites (in words)” value is listed as “more selective with respect to Smo2 sites than the Smo1 sites”; the “C3H10T1/2 cell differentiation IC50 Smo1/IC50 Smo2” value is 0.08.

For the molecule `O=C(Nc1cccc2cccnc12)c1ccc(N2C(=O)[C@@H]3[C@H](C2=O)[C@@H]2C=C[C@H]3C2)cc1` [IWR1], in experiment [1] (IWR1 10 μM, SAG at 0.1 μM), the “effect on the activity of SAG” value is on record as “does not modify; also recorded: does not affect”. In experiment [1] (IWR1 10 μM, compound 1 at 1 μM), the “effect on the activity of compound 1 (in words)” value is given as “inhibits the activity of compound 1” and the “reduction of the activity of compound 1” value came to 60%. Also, in experiment [1] (dose-response curve of compound 1 with IWR1, read-out: IC50 with respect to alkaline phosphatase inhibition), the IC50 was found to be 2500 nM.

Regarding `COc1cc(C(=O)NC(=S)Nc2ccc(C)c(NC(=O)c3ccc(-c4ccccc4)cc3)c2)cc(OC)c1OC` [MRT-81], the inhibition at 10 µM at Smo1 sites (setting [3]) and at Smo2 sites (setting [4]) was 100% throughout. The IC50 at Smo1 sites (C3H10T1/2 cells) came to 60 ± 20 nM; on Smo2 sites (setting [5]), 0.06 µM; on Smo2 sites (setting [6]) it was 0.06 µM. In addition, the “times more selective with respect to Smo2 sites” value on Smo2 sites (compound 1 versus SAG stimulation) is listed as 1.3 times. The “C3H10T1/2 cell differentiation IC50 Smo1/IC50 Smo2” value at Smo2 sites was found to be 0.9.

As for `Cc1nn(-c2ccccc2)c(C)c1/C=N/N1CCN(Cc2ccccc2)CC1` [SANT-1], the inhibition at 10 µM came to 100% on Smo1 sites (setting [3]) and 71% at Smo2 sites (setting [4]). Also, the IC50 on Smo1 sites (C3H10T1/2 cells) was 40 ± 10 nM; on Smo2 sites (setting [7]), 0.06 ± 0.02 µM. In addition, the “selectivity between Smo1 and Smo2 sites (in words)” value on Smo2 sites is on record as “comparable affinities”. The “C3H10T1/2 cell differentiation IC50 Smo1/IC50 Smo2” value on Smo2 sites is 1.5.

Consider `COc1cccc(CN(C(=O)CC(C)(C)C)[C@H]2C[C@@H](C(=O)N3CCNCC3)N(Cc3ccc4c(c3)OCO4)C2)c1` [Cur61414], for which the “selectivity for the Smo1 site compared with the Smo2 site” value at Smo1 sites (SAG versus compound 1 stimulation) is reported as 17 fold. Moreover, the “selectivity between Smo1 and Smo2 sites (in words)” value on Smo2 sites is given as “much more selective with respect to Smo1 sites than Smo2 sites”. Besides, the IC50 at Smo2 sites (setting [7]) was determined as 5.7 ± 1.6 µM; on Smo2 sites (setting [5]), 5.7 ± 1.6 µM; at Smo2 sites (setting [6]) it was 7 ± 1 µM. In addition, the “Smo2 Inhibition 10 μM” value at Smo2 sites (setting [2]) was “weaker inhibition”. At Smo2 sites, the “C3H10T1/2 cell differentiation IC50 Smo1/IC50 Smo2” value is recorded as 17.

Regarding `CCCCCCn1c(=O)c(C(=O)Nc2ccc(C(=O)OCCC)cc2)c(O)c2ccccc21` [compound 1, propyl 4-(1-hexyl-4-hydroxy-2-oxo-1,2-dihydroquinoline-3-carboxamido)benzoate], the “maximum stimulation compared with SAG” value with C3H10T1/2 cells (dose-response curves produced in parallel) is on record as “greater than that of the Smo agonist SAG”. The stimulation of osteogenesis result with C3H10T1/2 cells is reported as “have the capacity to stimulate osteogenesis”.

Turning to `COc1cc(C(=O)NC(=O)Nc2cccc(NC(=O)c3ccccc3)c2)cc(OC)c1OC` [MRT-14], the values for the inhibition at 10 µM at Smo1 sites (setting [3]) and on Smo2 sites (setting [4]) were 100% and 95%, respectively. Moreover, the IC50 against Smo1 sites (C3H10T1/2 cells) is 130 ± 50 nM; on Smo2 sites (response induced by compound 1, read-out: affinity (IC50) for compound 1), 0.32 µM; at Smo2 sites (response induced by compound 6, read-out: affinity (IC50) for compound 6) it was 0.4 µM. For the same molecule, the “selectivity between Smo1 and Smo2 sites (in words)” value at Smo2 sites was “comparable affinities”. Also, the “C3H10T1/2 cell differentiation IC50 Smo1/IC50 Smo2” value at Smo2 sites was 2.5.
